# Experimental data: the METLIN SMRT retention time set (Domingo-Almenara et al. 2019)
# Test: gradient 5% acetonitrile 3 min, to 50% in 2 min, to 85% in 15 min, held 3 min, 100 µL/min
# Settings: column: Zorbax Extend-C18 2.1 x 50 mm; eluents: water / acetonitrile, 0.1% formic acid
# Summary of the method: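 Over 3 months, pure standards in mixtures of ~100 molecules were run by HPLC coupled to a quadrupole time-of-flight mass spectrometer in positive and negative ionization mode. The column was a Zorbax Extend-C18 (2.1 × 50 mm, 1.8 μm) at 100 μL/min, eluted with water and acetonitrile each holding 0.1% formic acid, with 40 μL dead and 900 μL dwell volumes. Retention time was determined from adduct peaks chosen by software and checked manually.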
row,SMILES,RP-LC retention time [s]
1,CN1C(=O)C(C)(C(=O)Nc2ccc(Cl)cc2F)Oc2cccnc21 (configuration not stated),894
2,O=C(Nc1nc2c(s1)CCc1ccccc1-2)c1cccc(F)c1,1120
3,Cc1ccc(CN2CCN(CC(=O)Nc3ccc4c(c3)OCO4)C(=O)C2=O)cc1,742
4,CCn1cc(-c2nc(CC(=O)Nc3cc(F)ccc3F)cs2)c2cccnc21,1020
5,Cc1ccccc1Nc1c(-c2cccc(O)c2)nc2cnccn12,744
6,Cc1ncn(CC(=O)Nc2cccc(Cl)c2)c(=O)c1C,705
7,Cc1cc2nn(CC(=O)NCc3ccccc3)c(=O)n2c(-c2ccccc2)n1,753
8,COc1ccc(CNC(=O)Nc2ccc(CC(=O)NCC(F)(F)F)cc2)cc1,706
9,O=C(c1nccc2ccccc12)N1CCC(Nc2ncnc3c2CCC3)C1 (configuration not stated),537
10,Cc1ccc(CNC(=O)C2(C)Cn3nc(C(=O)NCCCN4CCCCC4)cc3C(=O)N2C)cc1 (configuration not stated),598
11,CC1(C(=O)NCc2ccc(F)cc2)CN(S(C)(=O)=O)CC(=O)N1c1cccc(Cl)c1 (configuration not stated),805
12,Cc1noc(-c2cccc(OC3CN(C(=O)Nc4cccc(F)c4)C3)c2)n1,923
13,Cc1nc(-c2ccc(C(=O)N3CCCc4ccccc43)cc2)no1,929
14,CCCn1cnc2ccc(-c3noc(C4CC(=O)N(c5ccc(C)cc5)C4)n3)cc21 (configuration not stated),735
15,COc1ccc(-n2nnc(C(=O)N3CCOCC3)c2C)cc1Cl,684
16,Cc1ccc(-c2nnc(N3CCC(C(=O)NC(C)c4ccccc4)CC3)o2)cc1 (configuration not stated),886
17,CCC(=O)Nc1ccc(-n2cnc(C(=O)N3CCN(c4ccccc4)CC3)c2)nc1,708
18,CC(C)NC(=O)c1nsc(C(=O)N2CCN(c3ncccn3)CC2)c1N,764
19,O=C(Cc1ccccc1F)NC1CCN(c2cc(-c3ccccc3)[nH]n2)C1 (configuration not stated),688
20,COc1ccc(NC(=O)C2CCN(S(C)(=O)=O)c3cc(Cl)ccc3O2)cc1 (configuration not stated),918
21,Cc1ccc(C)c2sc(N(C)CC(=O)NCCSc3nncn3C)nc12,719
22,c1ccc(-c2noc(-c3ccccc3OC3CCN(Cc4nccs4)C3)n2)cc1 (configuration not stated),750
23,O=C(NCc1cccc(C(F)(F)F)c1)c1cn2ccccc2n1,748
24,COCC(=O)N1CCc2c(c(-c3nnc(-c4ccccc4Cl)o3)nn2C)C1,689
25,CCC(C)C(NC(=O)c1cccc(Cl)c1)C(=O)Nc1nc2ccccc2[nH]1 (configuration not stated),750
26,O=c1cc[nH]c2c(Cl)cccc12,676
27,COc1ccc2cc(C(=O)N3CCC(CC(=O)NCC4CCCO4)CC3)[nH]c2c1 (configuration not stated),681
